From the supplement of paper PMC10132981, “Formate overflow drives toxic folate trapping in MTHFD1 inhibited cancer cells” (Nature Metabolism, 2023)

Legend:
[1] = system: SW620 MTHFD2-/-; test: cell viability relative to vehicle (resazurin, 96 h); higher = more viable; details: base medium: RPMI + dialysed FBS
Description: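 SW620 WT or MTHFD2-/- cells were treated for 96 h with a compound dilution series (log10 M) in RPMI with normal or dialysed FBS. Viability was read by resazurin and is given as % of vehicle.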

[2] = system: SW620 MTHFD2 -/-; test: EC50 for viability (resazurin, 96 h); details: RPMI+GlutaMAX (5% dFBS, 1% P/S)
[3] = system: SW620; test: EC50 for viability (resazurin, 96 h)
[4] = system: SW620 MTHFD2-/-; test: EC50 for viability (resazurin, 96 h); details: RPMI+GlutaMAX (5% dFBS, 1% P/S); metabolite supplement: Hypoxanthine + Formate
[5] = system: SW620 WT; test: EC50 for viability (resazurin, 96 h); details: RPMI+GlutaMAX (5% dFBS, 1% P/S)

Cc1c(N2CCN(C)[C@@H](C)C2)ccc2c3c(c(=O)oc12)CN(C(=O)c1ccc(NS(C)(=O)=O)c(OC(F)(F)F)c1)CC3
Details | EC50 for viability [µM] | cell viability [%]
[1], log10 compound concentration (M): -5, supplement / serum: 50μM Hypoxanthine | – | 95.4
[1], log10 compound concentration (M): -5, supplement / serum: 50μM Thymidine + 50μM Hypoxanthine | – | 108
[1], log10 compound concentration (M): -5, supplement / serum: 50μMThymidine | – | 13.3
[1], log10 compound concentration (M): -5, supplement / serum: Hypoxanthine | – | 85.7
[1], log10 compound concentration (M): -5, supplement / serum: Hypoxanthine+Sodium Formate | – | 51.9
[1], log10 compound concentration (M): -5, supplement / serum: No metabolite | – | 15.4
[1], log10 compound concentration (M): -5, supplement / serum: Sodium Formate | – | 87.3
[1], log10 compound concentration (M): -5, supplement / serum: Vehicle | – | 11.5
[1], log10 compound concentration (M): -5.47712, supplement / serum: 50μM Hypoxanthine | – | 77.9
[1], log10 compound concentration (M): -5.47712, supplement / serum: 50μM Thymidine + 50μM Hypoxanthine | – | 98
[1], log10 compound concentration (M): -5.47712, supplement / serum: 50μMThymidine | – | 14.1
[1], log10 compound concentration (M): -5.47712, supplement / serum: Hypoxanthine | – | 94.2
[1], log10 compound concentration (M): -5.47712, supplement / serum: Hypoxanthine+Sodium Formate | – | 90.1
[1], log10 compound concentration (M): -5.47712, supplement / serum: No metabolite | – | 14.8
[1], log10 compound concentration (M): -5.47712, supplement / serum: Sodium Formate | – | 95.7
[1], log10 compound concentration (M): -5.47712, supplement / serum: Vehicle | – | 13.5
[1], log10 compound concentration (M): -5.95424, supplement / serum: 50μM Hypoxanthine | – | 99.7
[1], log10 compound concentration (M): -5.95424, supplement / serum: 50μM Thymidine + 50μM Hypoxanthine | – | 111
[1], log10 compound concentration (M): -5.95424, supplement / serum: 50μMThymidine | – | 20.9
[1], log10 compound concentration (M): -5.95424, supplement / serum: Hypoxanthine | – | 101
[1], log10 compound concentration (M): -5.95424, supplement / serum: Hypoxanthine+Sodium Formate | – | 99
[1], log10 compound concentration (M): -5.95424, supplement / serum: No metabolite | – | 20.5
[1], log10 compound concentration (M): -5.95424, supplement / serum: Sodium Formate | – | 97.1
[1], log10 compound concentration (M): -5.95424, supplement / serum: Vehicle | – | 20.3
[1], log10 compound concentration (M): -6.43136, supplement / serum: 50μM Hypoxanthine | – | 109
[1], log10 compound concentration (M): -6.43136, supplement / serum: 50μM Thymidine + 50μM Hypoxanthine | – | 114
[1], log10 compound concentration (M): -6.43136, supplement / serum: 50μMThymidine | – | 41.5
[1], log10 compound concentration (M): -6.43136, supplement / serum: Hypoxanthine | – | 98
[1], log10 compound concentration (M): -6.43136, supplement / serum: Hypoxanthine+Sodium Formate | – | 104
[1], log10 compound concentration (M): -6.43136, supplement / serum: No metabolite | – | 43.5
[1], log10 compound concentration (M): -6.43136, supplement / serum: Sodium Formate | – | 98.9
[1], log10 compound concentration (M): -6.43136, supplement / serum: Vehicle | – | 44.8
[1], log10 compound concentration (M): -6.90849, supplement / serum: 50μM Hypoxanthine | – | 99.4
[1], log10 compound concentration (M): -6.90849, supplement / serum: 50μM Thymidine + 50μM Hypoxanthine | – | 101
[1], log10 compound concentration (M): -6.90849, supplement / serum: 50μMThymidine | – | 59.6
[1], log10 compound concentration (M): -6.90849, supplement / serum: Hypoxanthine | – | 99.5
[1], log10 compound concentration (M): -6.90849, supplement / serum: Hypoxanthine+Sodium Formate | – | 98.9
[1], log10 compound concentration (M): -6.90849, supplement / serum: No metabolite | – | 56.7
[1], log10 compound concentration (M): -6.90849, supplement / serum: Sodium Formate | – | 100
[1], log10 compound concentration (M): -6.90849, supplement / serum: Vehicle | – | 74.4
[1], log10 compound concentration (M): -7.38561, supplement / serum: 50μM Hypoxanthine | – | 67.2
[1], log10 compound concentration (M): -7.38561, supplement / serum: 50μM Thymidine + 50μM Hypoxanthine | – | 110
[1], log10 compound concentration (M): -7.38561, supplement / serum: 50μMThymidine | – | 61.2
[1], log10 compound concentration (M): -7.38561, supplement / serum: Hypoxanthine | – | 85.2
[1], log10 compound concentration (M): -7.38561, supplement / serum: Hypoxanthine+Sodium Formate | – | 83
[1], log10 compound concentration (M): -7.38561, supplement / serum: No metabolite | – | 50
[1], log10 compound concentration (M): -7.38561, supplement / serum: Sodium Formate | – | 76.9
[1], log10 compound concentration (M): -7.38561, supplement / serum: Vehicle | – | 56.4
[1], log10 compound concentration (M): -7.86273, supplement / serum: 50μM Hypoxanthine | – | 104
[1], log10 compound concentration (M): -7.86273, supplement / serum: 50μM Thymidine + 50μM Hypoxanthine | – | 105
[1], log10 compound concentration (M): -7.86273, supplement / serum: 50μMThymidine | – | 67.2
[1], log10 compound concentration (M): -7.86273, supplement / serum: Hypoxanthine | – | 88.9
[1], log10 compound concentration (M): -7.86273, supplement / serum: Hypoxanthine+Sodium Formate | – | 94.5
[1], log10 compound concentration (M): -7.86273, supplement / serum: No metabolite | – | 72.2
[1], log10 compound concentration (M): -7.86273, supplement / serum: Sodium Formate | – | 94.4
[1], log10 compound concentration (M): -7.86273, supplement / serum: Vehicle | – | 80.2
[1], log10 compound concentration (M): -8.33985, supplement / serum: 50μM Hypoxanthine | – | 104
[1], log10 compound concentration (M): -8.33985, supplement / serum: 50μM Thymidine + 50μM Hypoxanthine | – | 95
[1], log10 compound concentration (M): -8.33985, supplement / serum: 50μMThymidine | – | 77.3
[1], log10 compound concentration (M): -8.33985, supplement / serum: Hypoxanthine | – | 93.9
[1], log10 compound concentration (M): -8.33985, supplement / serum: Hypoxanthine+Sodium Formate | – | 101
[1], log10 compound concentration (M): -8.33985, supplement / serum: No metabolite | – | 90
[1], log10 compound concentration (M): -8.33985, supplement / serum: Sodium Formate | – | 92.2
[1], log10 compound concentration (M): -8.33985, supplement / serum: Vehicle | – | 92.8
[1], log10 compound concentration (M): -8.81697, supplement / serum: 50μM Hypoxanthine | – | 114
[1], log10 compound concentration (M): -8.81697, supplement / serum: 50μM Thymidine + 50μM Hypoxanthine | – | 113
[1], log10 compound concentration (M): -8.81697, supplement / serum: 50μMThymidine | – | 94
[1], log10 compound concentration (M): -8.81697, supplement / serum: Hypoxanthine | – | 94.5
[1], log10 compound concentration (M): -8.81697, supplement / serum: Hypoxanthine+Sodium Formate | – | 95.1
[1], log10 compound concentration (M): -8.81697, supplement / serum: No metabolite | – | 96.4
[1], log10 compound concentration (M): -8.81697, supplement / serum: Sodium Formate | – | 95.3
[1], log10 compound concentration (M): -8.81697, supplement / serum: Vehicle | – | 94.3
[1], log10 compound concentration (M): -9.29409, supplement / serum: 50μM Hypoxanthine | – | 96.5
[1], log10 compound concentration (M): -9.29409, supplement / serum: 50μM Thymidine + 50μM Hypoxanthine | – | 113
[1], log10 compound concentration (M): -9.29409, supplement / serum: 50μMThymidine | – | 95.6
[1], log10 compound concentration (M): -9.29409, supplement / serum: Hypoxanthine | – | 95.9
[1], log10 compound concentration (M): -9.29409, supplement / serum: Hypoxanthine+Sodium Formate | – | 94.7
[1], log10 compound concentration (M): -9.29409, supplement / serum: No metabolite | – | 104
[1], log10 compound concentration (M): -9.29409, supplement / serum: Sodium Formate | – | 98.8
[1], log10 compound concentration (M): -9.29409, supplement / serum: Vehicle | – | 97
[1], log10 compound concentration (M): -9.77121, supplement / serum: 50μM Hypoxanthine | – | 106
[1], log10 compound concentration (M): -9.77121, supplement / serum: 50μM Thymidine + 50μM Hypoxanthine | – | 124
[1], log10 compound concentration (M): -9.77121, supplement / serum: 50μMThymidine | – | 92.7
[1], log10 compound concentration (M): -9.77121, supplement / serum: Hypoxanthine | – | 95
[1], log10 compound concentration (M): -9.77121, supplement / serum: Hypoxanthine+Sodium Formate | – | 98.8
[1], log10 compound concentration (M): -9.77121, supplement / serum: No metabolite | – | 110
[1], log10 compound concentration (M): -9.77121, supplement / serum: Sodium Formate | – | 99.3
[1], log10 compound concentration (M): -9.77121, supplement / serum: Vehicle | – | 96.2
[2], metabolite supplement: Sodium Formate | > 10 | –
[2], metabolite supplement: Thymidine | 0.0863 | –
[2], metabolite supplement: Thymidine + Sodium Formate | 0.000383 | –
[2], metabolite supplement: Vehicle | 0.178 | –
[5], metabolite supplement: Adenine | > 10 | –
[5], metabolite supplement: Adenosine | > 10 | –
[5], metabolite supplement: Guanosine | 2.97 | –
[5], metabolite supplement: Hypoxanthine | > 10 | –
[5], metabolite supplement: Thymidine | 1.07 | –
[5], metabolite supplement: Vehicle | 0.889 | –

[3]
Details | EC50 for viability [µM]
HPLM (5% dFBS, 1% P/S), metabolite supplement: Vehicle | > 10
RPMI+GlutaMAX (5% FBS, 1% P/S), metabolite supplement: Vehicle | > 10
RPMI+GlutaMAX (5% dFBS, 1% P/S), metabolite supplement: 50 µM Hypoxanthine | > 10
RPMI+GlutaMAX (5% dFBS, 1% P/S), metabolite supplement: Vehicle | 0.553
RPMI+GlutaMAX (10% FBS, 1% P/S), metabolite supplement: Hypoxanthine | 7.05
RPMI+GlutaMAX (10% FBS, 1% P/S), metabolite supplement: Sodium Formate | 6.17
RPMI+GlutaMAX (10% FBS, 1% P/S), metabolite supplement: Thymidine | 0.447
RPMI+GlutaMAX (10% FBS, 1% P/S), metabolite supplement: Thymidine + Hypoxanthine | > 10
RPMI+GlutaMAX (10% FBS, 1% P/S), metabolite supplement: Thymidine + Sodium Formate | > 10

Details | EC50 for viability [µM]
[4] | > 10
